# Entries after “also recorded” stand apart in the source; their conditions may differ. Read-outs that look alike come from different tables or passages of the source.
# Columns and labels:
# [1] = Dynamic vapour sorption (moisture sorption) with XRPD of post-DVS material; format: physicochemical; details: for XRPD analysis of the post-DVS material: after DVS and drying at 60 °C for 2 hours; for Hygroscopicity (in words): from DVS moisture sorption; for Moisture Sorption (hygroscopicity in words): from uptake at 60% and 90% RH
# Protocol: Dynamic vapour sorption experiment was carried out by first holding the sample at 40% RH and 25.0° C. until an equilibrium weight was reached or for a maximum of four hours. The sample was then subjected to an isothermal (at 25.0° C.) adsorption scan from 40 to 90% RH in steps of 10%. The sample was allowed to equilibrate to an asymptotic weight at each point for a maximum of four hours. Following adsorption, a desorption scan from […] to 5% RH (at 25.0° C.) was run in steps of 10% again allowing a maximum of four hours for equilibration to an asymptotic weight. An adsorption scan was then performed from 0 to 40% RH in steps of 10%. The sample was then dried for no less than two hours at 60.0° C. and the resulting solid analyzed by XRPD.
# [2] = Competitive slurry of calcium, potassium and sodium salts in acetone; format: physicochemical; details: for XRPD of solids, aliquot time point Day 1 / XRPD of solids, aliquot time point Day 7: RT; for Outcome of competitive slurry of salts (in words): acetone (50 μL water added for potassium and sodium salts), room temperature, one and seven days
# Protocol: Calcium, sodium, and potassium salts were used to setup different competitive slurry experiments. For competitive slurry of calcium salts (˜5-6 mg of Salt I and Salt II) were weighed into a 5.0 mL clear vial equipped with magnetic stir bars. These steps were repeated for potassium salt material (˜5-6.5 mg of Salt III) and sodium salt materials (˜2.6-6.4 mg of Salt IV and Salt V). […] All slurries, 400 μL, were filtered through 0.45 micron centrifuge filters after one and seven days of equilibration. The solids were analyzed by XRPD to check for salt conversion (Table 36).
# [3] = Aqueous solubility (slurry in deionized water at room temperature, filtrate by HPLC, solids by XRPD); details: for Solubility / Aqueous Solubility: deionized water; for Solubility: equilibrated with stirring, filtrate by HPLC; for Aqueous Solubility: standard curve linear range 0.008 to 0.2 mg/mL; for Aqueous Solubility: XRPD (1 day) of solids: solid form after 1 day slurry in water
# Protocol: Approximately 14-25 mg of Forms A, D and G were transferred to 20 mL vials equipped with magnetic stir bars. 1.0 mL of deionized water was added and the resulting free flowing slurry was allowed to equilibrate over 1 and 7 days period with stirring at room temperature. […] The filtrates were analyzed by HPLC to determine solubility.
# [4] = Thermal holding (TGA thermal hold) experiments of salts, XRPD of resulting solid; format: physicochemical
# [5] = Stability of crystalline materials from selected salts in different humidity (XRPD); format: physicochemical; details: for XRPD Initial: before humidity exposure; for XRPD Post humidity exposure: 65% RH, RT
# Source text: Table 49 provides thermal stability data. Table 50 provides TGA thermal data.
# [6] = Thermal holding (TGA thermal hold) experiments of salts, XRPD of resulting solid; format: physicochemical; details: for XRPD Post thermal hold / XRPD Post thermal hold, sample left on bench top, 24 hrs: 30-130 °C at 10 °C/min, hold 130 °C/2 min; for XRPD Post thermal hold, sample left on bench top, 24 hrs: then bench top 24 hrs; for XRPD Pre-thermal hold: before TGA thermal hold; for XRPD of solid after thermal hold at 130 °C for 2 minutes: held at 130 °C for 2 minutes, cooled to ambient temperature
# Protocol: Salt I, Salt II, Salt III, Salt IV, Salt V, Salt VI, Salt VII, Salt VIII, Salt IX and Salt X were characterized to evaluate its physical form and stability.
# In an effort to isolate a high melt crystal form, the material was held at 130° C. for 2 minutes followed by cooling to ambient temperature.
# In an effort to isolate a high melt crystal form through a dehydration/recrystallization process, Salt IV was held at 130° C. for 2 minutes followed by cooling to ambient temperature.
# [7] = Thermal stability experiments (solid stored at 60 °C; XRPD and HPLC); details: for XRPD, aliquot time point Day 1 / XRPD, aliquot time point Day 7: solid stored at 60.0 °C; for Physical form / XRPD pattern change after storage at 60 °C for seven days (in words) / Chemical stability / degradation by HPLC after storage at 60 °C for seven days (in words): solid
# [8] = Single form slurry experiments of Forms A, D and G; format: physicochemical; details: ambient temperature, all tested conditions
# Protocol: Single form slurry experiments were conducted for Forms A, D and G in three solvents stems, water, 1:2 v/v IPAc/heptane, and toluene to evaluate their physical form stability as a single polymorph (Table 14). Form A remained unchanged at six day time point. […] Form D remained unchanged for three days in water but converted to a mixture A and D at six days. In 1:2 IPAc/heptane and toluene, Form D converted to a mixture of A and D at three days and then Form A at six days. […] Form D is also a metastable polymorph but its conversion to Form A is kinetically slower than Form G. The conversion was the slowest in water partly due to low solubility.
# Approximately 10-20 mg of Forms A, D and G were weighed into 8 mL clear vials equipped with magnetic stir bars (Table 14). Water, IPAc/Heptane (1:2 V/V) and toluene were used as the solvent systems for these competitive slurry experiments. Three selected solvents, 1.0 mL, were added to achieve free-flowing slurry and allowed to equilibrate at room temperature. All slurries will be isolated via centrifuge filtration after three day and six days of equilibration.
# [9] = slurry of potassium or sodium salts in acetone + 0.05 mL water
# [10] = after thermal stress at 60.0 °C
# [11] = parent material before thermal stress
# [12] = competitive slurry of calcium salts (Salt I + Salt II) in acetone 1.0 mL
SMILES,hydration property [1],Moisture Sorption ([1]; 60% RH),Moisture Sorption ([1]; 90% RH),"Moisture adsorbed at 60% RH ([1]; DVS, 25.0 °C, 60% RH) [wt %]","Moisture Sorption 90% RH ([1]; DVS, 25.0 °C, 90% RH) [wt %]","XRPD of solids, aliquot time point Day 1 [2, 9]","XRPD of solids, aliquot time point Day 7 [2, 9]",Aqueous Solubility ([3]; room temperature) [µg/mL],Aqueous Solubility: XRPD (1 day) of solids [3],XRPD Initial [5],Moisture Sorption (hygroscopicity in words) ([1]; DVS),"HPLC (% AUC) [7, 10] [% AUC]","Parent Material HPLC (% AUC) [7, 11] [% AUC]","XRPD, aliquot time point Day 1 [7]","XRPD, aliquot time point Day 7 [7]",Physical form / XRPD pattern change after storage at 60 °C for seven days (in words) [7],Chemical stability / degradation by HPLC after storage at 60 °C for seven days (in words) [7],Outcome of competitive slurry of salts (in words) [2],XRPD analysis of the post-DVS material [1],Hygroscopicity (in words) [1],further results
O=C([O-])CNC(=O)c1ncc(-c2cccc(F)c2)cc1O.O=C([O-])CNC(=O)c1ncc(-c2cccc(F)c2)cc1O.[Ca+2] [Salt I],,60% RH: 1.0 wt %,90% RH: 4.1 wt %,1.0,4.1,,,10,Salt I + Extra,,(moderately,,,Salt I,Salt I,no change in physical form,chemically stable,most stable polymorphs,consistent XRPD pattern as the starting material,moderately hydroscopic; also recorded: moderately hygroscopic,"XRPD of solids, aliquot time point Day 1 [2, 12]: Salt I; XRPD of solids, aliquot time point Day 7 [2, 12]: Salt I; Solubility ([3]; room temperature): 10 µg/mL; hydration property ([1]; 60% RH): anhydrate (60%; hydration property ([1]; 90% RH): monohydrate"
O=C([O-])CNC(=O)c1ncc(-c2cccc(F)c2)cc1O.[K+] [Salt III],,60% RH: 2.1 wt %,90% RH: 4.5 wt %,2.1,4.5,Salt III,Salt III,,,Salt III + Salt IX,(moderately,99.9,99.9,Salt III,Salt III,no change in physical form,,most stable polymorphs,,moderately hydroscopic; also recorded: moderately hygroscopic,"Solid form by XRPD after 1 day ([3]; slurry in deionized water, room temperature, 1 day (24 hour)): converted from Salt III to Salt IX; Solid form by XRPD after 7 day ([3]; slurry in deionized water, room temperature, 7 days): remained as Salt IX; XRPD Post humidity exposure [5]: Salt III + Salt IX; hydration property ([1]; 60% RH): hemi-(60% RH); hydration property ([1]; 90% RH): to mono-hydrate; XRPD Post thermal hold [6]: Salt III; XRPD Post thermal hold, sample left on bench top, 24 hrs [6]: Salt III; XRPD of solid after thermal hold at 130 °C for 2 minutes [6]: consistent with Salt III"
"O=C(O)CNC(=O)c1ncc(-c2cccc(F)c2)cc1O [Form G, 2-(5-(3-fluorophenyl)-3-hydroxypicolinamido)acetic acid]",,,,0.4,7.1,,,,,,,,,form mixture; also recorded: A + G,only Form A,,chemically stable,,afforded Form A,slightly hygroscopic; also recorded: moderately hygroscopic,"Solubility ([3]; water, thermodynamic from solid, Solubility, room temperature): 61 µg/mL; Moisture Sorption 60% RH ([1]; DVS, 25.0 °C, 60% RH): 0.4%; Moisture Sorption 90% RH ([1]; DVS, 25.0 °C, 90% RH, listed as G): 7.1 wt %; Weight moisture uptake at 60% RH ([1]; DVS, 60% RH): about 0.4 % weight; Weight moisture uptake at 90% RH ([1]; DVS, 90% RH): about 7.1 % weight; Outcome in the single form and competitive slurry experiments (in words) [8]: converted to Form A; HPLC (% AUC) ([7]; after storage at 60.0 °C): >99.9 % AUC; Parent Material HPLC (% AUC) ([7]; before storage at 60.0 °C): >99.3 % AUC"
O.O=C([O-])CNC(=O)c1ncc(-c2cccc(F)c2)cc1[O-].[Na+].[Na+] [Salt V],monohydrate,60% RH: 6.0 wt %,90% RH: 6.4 wt %,6.0,6.4,Salt V +,Salt V,79800,Salt V + Extra,Salt V,(moderately,99.9,99.9,Salt V,Salt V,,,most stable polymorphs,mostly consistent with Salt V with a few missing peaks,moderately hydroscopic; also recorded: moderately hygroscopic,XRPD Post humidity exposure [5]: Salt V; XRPD Pre-thermal hold [6]: Salt V

# The next lines start with results.
hydration property [1],Moisture Sorption ([1]; 60% RH),Moisture Sorption ([1]; 90% RH),"Moisture adsorbed at 60% RH ([1]; DVS, 25.0 °C, 60% RH) [wt %]","Moisture Sorption 90% RH ([1]; DVS, 25.0 °C, 90% RH) [wt %]","XRPD of solids, aliquot time point Day 1 [2, 9]","XRPD of solids, aliquot time point Day 7 [2, 9]",Aqueous Solubility ([3]; room temperature) [µg/mL],Aqueous Solubility: XRPD (1 day) of solids [3],XRPD Initial [5],Moisture Sorption (hygroscopicity in words) ([1]; DVS),"HPLC (% AUC) [7, 10] [% AUC]","Parent Material HPLC (% AUC) [7, 11] [% AUC]","XRPD, aliquot time point Day 1 [7]","XRPD, aliquot time point Day 7 [7]",Physical form / XRPD pattern change after storage at 60 °C for seven days (in words) [7],Chemical stability / degradation by HPLC after storage at 60 °C for seven days (in words) [7],Outcome of competitive slurry of salts (in words) [2],SMILES,XRPD analysis of the post-DVS material [1],Hygroscopicity (in words) [1],further results
anhydrate,60% RH: 0.3 wt %,90% RH: 0.7 wt %,0.3,0.7,,,,,,,,,,,,,,O=C([O-])CNC(=O)c1ncc(-c2cccc(F)c2)cc1O.[Na+] [Salt VI],consistent XRPD diffractogram,slightly hydroscopic; also recorded: slightly hygroscopic,
monohydrate,60% RH: 6.1 wt %,90% RH: 6.5 wt %,6.1,6.5,Salt V +,Salt V,19000,Salt IV + Extra,Salt IV,(moderately,99.9,99.9,Salt IV,Salt IV,no polymorph conversion or degradation,no polymorph conversion or degradation,,O.O=C([O-])CNC(=O)c1ncc(-c2cccc(F)c2)cc1O.[Na+] [Salt IV],consistent XRPD pattern as the starting material,moderately hydroscopic; also recorded: moderately hygroscopic,"Form change after slurrying in water for 13 days ([3]; aqueous solubility study, 13 days): no form change; Solubility ([3]; room temperature): 19000 µg/mL; XRPD Post thermal hold ([4]; 180-260 °C at 10 °C/min, hold 260 °C/2 min): Salt VI; XRPD Post thermal hold, sample left on bench top, 24 hrs ([4]; 180-260 °C at 10 °C/min, hold 260 °C/2 min, then bench top 24 hrs): Salt VI; XRPD of solid after thermal hold at 260 °C ([4]; held at 260 °C): conversion to a new salt (Salt VI); XRPD Post thermal hold [6]: Salt IV; XRPD Post thermal hold, sample left on bench top, 24 hrs [6]: Salt IV; XRPD Pre-thermal hold [6]: Salt IV; XRPD of solid after thermal hold at 130 °C for 2 minutes [6]: consistent with Salt IV"

# Reference: patent US10150734B2, “Solid forms of 2-(5-(3-fluorophenyl)-3-hydroxypicolinamido)acetic acid, compositions, and uses thereof” (Akebia Therapeutics, Inc., priority 2015, dated 2018)
